# According to patent US20020049223A1, “Quinoline and naphthyridine carboxylic acid antibacterials” (priority 1999, published 2002):
# Columns and labels:
# Test in all cases: Assay B: in vitro antibacterial activity, broth microdilution MIC (NCCLS)
# Type in all cases: cell-based
# [1] = test system: Haemophilus influenzae DILL AMP R; settings: Table 2, Assay B, Mueller Hinton broth with yeast extract, hematin and NAD, 20 to 24 hr; code E = Haemophilus influenzae DILL AMP R; unit assumed
# Outline: (§1)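 NCCLS broth microdilution: cation-adjusted MH broth, ~5×10^5 CFU/mL, 35° C, 16–20 hr, visual endpoint of complete growth inhibition. Fastidious strains incubated 20–24 hr, S. pneumoniae with 3% lysed horse blood, H. influenzae with yeast extract, hematin and NAD.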
# [2] = test system: Streptococcus pneumoniae ATCC 6303; settings: Table 2, Assay B, Mueller Hinton broth with 3% lysed horse blood, 20 to 24 hr; code F = Streptococcus pneumoniae ATCC 6303; unit assumed
# Outline: as §1
# [3] = test system: Enterococcus faecalis PIU 1967; settings: Table 2, Assay B, cation-adjusted Mueller Hinton broth, 35° C., 16 to 20 hr; code B = Enterococcus faecalis PIU 1967; unit assumed
# Outline: as §1
# [4] = test system: Staphylococcus aureus ATCC 6538P; settings: Table 2, Assay B, cation-adjusted Mueller Hinton broth, 35° C., 16 to 20 hr; code A = Staphylococcus aureus ATCC 6538P; unit assumed
# Outline: as §1
# Escherichia coli JUHL = settings: Table 2, Assay B, cation-adjusted Mueller Hinton broth, 35° C., 16 to 20 hr; code D = Escherichia coli JUHL; unit assumed
# Outline: as §1
smiles,measurement,setting,value
"COc1c(-c2cc3c(s2)CCCC3=NNC(N)=S)ccc2c(=O)c(C(=O)O)cn(C3CC3)c12 [Example 84, 7-((4E/Z)-4-[(aminocarbothioyl)hydrazono)-4,5,6,7-tetrahydro-1-benzothien-2-yl)-1-cyclopropyl-8-methoxy-4-oxo-1,4-dihydro-3-quinolinecarboxylic acid]","Antibacterial Activity (MIC's), E",[1],0.125 µg/mL
same,"Antibacterial Activity (MIC's), F",[2],0.25 µg/mL
same,"Antibacterial Activity (MIC's), B",[3],0.25 µg/mL
same,"Antibacterial Activity (MIC's), A",[4],0.06 µg/mL
same,"Antibacterial Activity (MIC's), D",Escherichia coli JUHL,1 µg/mL
"Cl.NC1CCCc2cc(-c3ccc4c(=O)c(C(=O)O)cn(C5CC5)c4c3Cl)sc21 (centres unmarked) [Example 330, 7-(7-amino-4,5,6,7-tetrahydro-1-benzothien-2-yl)-8-chloro-1-cyclopropyl-4-oxo-1,4-dihydroquinoline-3-carboxylic acid hydrochloride]","Antibacterial Activity (MIC's), E",[1],0.008 µg/mL
same,"Antibacterial Activity (MIC's), F",[2],0.03 µg/mL
same,"Antibacterial Activity (MIC's), B",[3],0.06 µg/mL
same,"Antibacterial Activity (MIC's), A",[4],0.015 µg/mL
same,"Antibacterial Activity (MIC's), D",Escherichia coli JUHL,0.03 µg/mL
COc1c(-c2cc3c(s2)CCCC3=NOCc2ccccc2)ccc2c(=O)c(C(=O)O)cn(C3CC3)c12 [Example 73],"Antibacterial Activity (MIC's), E",[1],0.03 µg/mL
same,"Antibacterial Activity (MIC's), F",[2],0.06 µg/mL
same,"Antibacterial Activity (MIC's), B",[3],0.06 µg/mL
same,"Antibacterial Activity (MIC's), A",[4],0.015 µg/mL
same,"Antibacterial Activity (MIC's), D",Escherichia coli JUHL,0.5 µg/mL
"COc1c(-c2cc3c(s2)CCC(N)C3)ccc2c(=O)c(C(=O)O)cn(C3CC3)c12.Cl (centres unmarked) [Example 76, 7-(5-amino-4,5,6,7-tetrahydro-1-benzothien-2-yl)-1-cyclopropyl-8-methoxy-4-oxo-1,4-dihydro-3-quinolinecarboxylic acid hydrochloride]","Antibacterial Activity (MIC's), E",[1],0.03 µg/mL
same,"Antibacterial Activity (MIC's), F",[2],0.03 µg/mL
same,"Antibacterial Activity (MIC's), B",[3],0.06 µg/mL
same,"Antibacterial Activity (MIC's), A",[4],0.015 µg/mL
same,"Antibacterial Activity (MIC's), D",Escherichia coli JUHL,0.06 µg/mL
"COc1c(-c2cc3c(s2)CCCC3n2cccc2)ccc2c(=O)c(C(=O)O)cn(C3CC3)c12 (centres unmarked) [Example 89, 1-cyclopropyl-8-methoxy-4-oxo-7-(4-(1H-pyrrol-1-yl)-4,5,6,7-tetrahydro-1-benzothien-2-yl)-1,4-dihydro-3-quinolinecarboxylic acid]","Antibacterial Activity (MIC's), E",[1],0.5 µg/mL
same,"Antibacterial Activity (MIC's), F",[2],1 µg/mL
same,"Antibacterial Activity (MIC's), B",[3],1 µg/mL
same,"Antibacterial Activity (MIC's), A",[4],0.125 µg/mL
same,"Antibacterial Activity (MIC's), D",Escherichia coli JUHL,2 µg/mL
"COc1c(-c2cc3c(s2)C(N)C(C)(C)CC3)c(F)cc2c(=O)c(C(=O)O)cn(C3CC3)c12.Cl (centres unmarked) [Example 348, 7-(7-amino-6,6-dimethyl-4,5,6,7-tetrahydro-1-benzothien-2-yl)-1-cyclopropyl-6-fluoro-8-methoxy-4-oxo-1,4-dihydroquinoline-3-carboxylic acid hydrochloride]","Antibacterial Activity (MIC's), E",[1],0.06 µg/mL
same,"Antibacterial Activity (MIC's), F",[2],0.03 µg/mL
same,"Antibacterial Activity (MIC's), B",[3],0.125 µg/mL
same,"Antibacterial Activity (MIC's), A",[4],0.015 µg/mL
same,"Antibacterial Activity (MIC's), D",Escherichia coli JUHL,0.25 µg/mL
"CON=C1Cc2cc(-c3ccc4c(=O)c(C(=O)O)cn(C5CC5)c4c3OC)sc2C1 [Example 248, 1-cyclopropyl-8-methoxy-7-((5E/Z)-5-(methoxyimino)-5,6-dihydro-4H-cyclopenta[b]thien-2-yl)-4-oxo-1,4-dihydro-3-quinolinecarboxylic acid]","Antibacterial Activity (MIC's), E",[1],0.5 µg/mL
same,"Antibacterial Activity (MIC's), F",[2],0.5 µg/mL
same,"Antibacterial Activity (MIC's), B",[3],0.25 µg/mL
same,"Antibacterial Activity (MIC's), A",[4],0.03 µg/mL
same,"Antibacterial Activity (MIC's), D",Escherichia coli JUHL,2 µg/mL
"CNC1CCCc2sc(-c3ccc4c(=O)c(C(=O)O)cn(C5CC5)c4c3OC)cc21.Cl (centres unmarked) [Example 77, 1-cyclopropyl-8-methoxy-7-[4-(methylamino)-4,5,6,7-tetrahydro-1-benzothien-2-yl]-4-oxo-1,4-dihydro-3-quinolinecarboxylic acid hydrochloride]","Antibacterial Activity (MIC's), E",[1],0.06 µg/mL
same,"Antibacterial Activity (MIC's), F",[2],0.03 µg/mL
same,"Antibacterial Activity (MIC's), B",[3],0.125 µg/mL
same,"Antibacterial Activity (MIC's), A",[4],0.015 µg/mL
same,"Antibacterial Activity (MIC's), D",Escherichia coli JUHL,0.25 µg/mL
"COc1c(-c2cc3c(s2)CC(NC(C)=O)C3)ccc2c(=O)c(C(=O)O)cn(C3CC3)c12 (centres unmarked) [Example 252, 7-(5-(acetylamino)-5,6-dihydro-4H-cyclopenta[b]thien-2-yl)-1-cyclopropyl-8-methoxy-4-oxo-1,4-dihydro-3-quinolinecarboxylic acid]","Antibacterial Activity (MIC's), E",[1],0.25 µg/mL
same,"Antibacterial Activity (MIC's), F",[2],1 µg/mL
same,"Antibacterial Activity (MIC's), B",[3],1 µg/mL
same,"Antibacterial Activity (MIC's), A",[4],0.5 µg/mL
same,"Antibacterial Activity (MIC's), D",Escherichia coli JUHL,4 µg/mL
"COc1c(-c2cc3c(s2)CCCC3=NN2CCOCC2)ccc2c(=O)c(C(=O)O)cn(C3CC3)c12 [Example 68, 1-cyclopropyl-8-methoxy-7-((4E/Z)-4-(4-morpholinvlimino)-4,5,6,7-tetrahydro-1-benzothien-2-yl)-4-oxo-1,4-dihydro-3-quinolinecarboxylic acid]","Antibacterial Activity (MIC's), E",[1],0.06 µg/mL
same,"Antibacterial Activity (MIC's), F",[2],0.125 µg/mL
same,"Antibacterial Activity (MIC's), B",[3],0.125 µg/mL
same,"Antibacterial Activity (MIC's), A",[4],0.008 µg/mL
same,"Antibacterial Activity (MIC's), D",Escherichia coli JUHL,0.5 µg/mL
"O=C(O)c1cn(C2CC2)c2cc(-c3cc4c(s3)C(O)CCC4)c(F)cc2c1=O (centres unmarked) [Example 293, 1-cyclopropyl-6-fluoro-7-(7-hydroxy-4,5,6,7-tetrahydro-1-benzothien-2-yl)-4-oxo-1,4-dihydroquinoline-3-carboxylic acid]","Antibacterial Activity (MIC's), E",[1],≤ 0.004 µg/mL
same,"Antibacterial Activity (MIC's), F",[2],0.03 µg/mL
same,"Antibacterial Activity (MIC's), B",[3],0.008 µg/mL
same,"Antibacterial Activity (MIC's), A",[4],≤ 0.004 µg/mL
same,"Antibacterial Activity (MIC's), D",Escherichia coli JUHL,0.015 µg/mL
"CNC1CCCc2sc(-c3c(F)cc4c(=O)c(C(=O)O)cn(C5CC5)c4c3F)cc21.Cl (centres unmarked) [Example 291, 1-cyclopropyl-6,8-difluoro-7-(4-(methylamino)-4,5,6,7-tetrahydro-1-benzothien-2-yl)-4-oxo-1,4-dihydroquinoline-3-carboxylic acid hydrochloride]","Antibacterial Activity (MIC's), E",[1],0.015 µg/mL
same,"Antibacterial Activity (MIC's), F",[2],0.03 µg/mL
same,"Antibacterial Activity (MIC's), B",[3],0.125 µg/mL
same,"Antibacterial Activity (MIC's), A",[4],0.015 µg/mL
same,"Antibacterial Activity (MIC's), D",Escherichia coli JUHL,0.03 µg/mL
"CNC1CCCc2sc(-c3ccc4c(=O)c(C(=O)O)cn(C5CC5)c4c3Cl)cc21.Cl (centres unmarked) [Example 361, 8-chloro-1-cyclopropyl-7-(4-(methylamino)-4,5,6,7-tetrahydro-1-benzothien-2-yl)-4-oxo-1,4-dihydroquinoline-3-carboxylic acid hydrochloride]","Antibacterial Activity (MIC's), E",[1],0.015 µg/mL
same,"Antibacterial Activity (MIC's), F",[2],0.03 µg/mL
same,"Antibacterial Activity (MIC's), B",[3],0.06 µg/mL
same,"Antibacterial Activity (MIC's), A",[4],0.015 µg/mL
same,"Antibacterial Activity (MIC's), D",Escherichia coli JUHL,0.06 µg/mL
"CNC1CCCc2sc(-c3c(F)c(N)c4c(=O)c(C(=O)O)cn(C5CC5)c4c3F)cc21.Cl (centres unmarked) [Example 346, 5-amino-1-cyclopropyl-6,8-difluoro-7-(4-(methylamino)-4,5,6,7-tetrahydro-1-benzothien-2-yl)-4-oxo-1,4-dihydroquinoline-3-carboxylic acid hydrochloride]","Antibacterial Activity (MIC's), E",[1],0.015 µg/mL
same,"Antibacterial Activity (MIC's), F",[2],0.008 µg/mL
same,"Antibacterial Activity (MIC's), B",[3],0.03 µg/mL
same,"Antibacterial Activity (MIC's), A",[4],≤ 0.004 µg/mL
same,"Antibacterial Activity (MIC's), D",Escherichia coli JUHL,0.125 µg/mL
COc1c(-c2cc3c(s2)CC(=NOCc2ccccc2)C3)ccc2c(=O)c(C(=O)O)cn(C3CC3)c12 [Example 255],"Antibacterial Activity (MIC's), E",[1],2 µg/mL
same,"Antibacterial Activity (MIC's), F",[2],8 µg/mL
same,"Antibacterial Activity (MIC's), B",[3],4 µg/mL
same,"Antibacterial Activity (MIC's), A",[4],0.5 µg/mL
same,"Antibacterial Activity (MIC's), D",Escherichia coli JUHL,32 µg/mL
"Cl.NC1CCCc2sc(-c3ccc4c(=O)c(C(=O)O)cn(C5CC5)c4c3)cc21 (centres unmarked) [Example 287, 7-(4-amino-4,5,6,7-tetrahydro-1-benzothien-2-yl)-1-cyclopropyl-4-oxo-1,4-dihydroquinoline-3-carboxylic acid hydrochloride]","Antibacterial Activity (MIC's), E",[1],0.03 µg/mL
same,"Antibacterial Activity (MIC's), F",[2],0.03 µg/mL
same,"Antibacterial Activity (MIC's), B",[3],0.125 µg/mL
same,"Antibacterial Activity (MIC's), A",[4],0.03 µg/mL
same,"Antibacterial Activity (MIC's), D",Escherichia coli JUHL,0.06 µg/mL
"COc1c(-c2cc3c(s2)CCCC3=NN(C)C(N)=S)ccc2c(=O)c(C(=O)O)cn(C3CC3)c12 [Example 105, 7-((4E/Z)-4-[(aminocarbothioyl)(methyl)hydrazono)-4,5,6,7-tetrahydro-1-benzothien-2-yl)-1-cyclopropyl-8-methoxy-4-oxo-1 4-dihydro-3-quinolinecarboxylic acid]","Antibacterial Activity (MIC's), E",[1],0.06 µg/mL
same,"Antibacterial Activity (MIC's), F",[2],0.03 µg/mL
same,"Antibacterial Activity (MIC's), B",[3],0.25 µg/mL
same,"Antibacterial Activity (MIC's), A",[4],0.03 µg/mL
same,"Antibacterial Activity (MIC's), D",Escherichia coli JUHL,1 µg/mL
"COc1c(-c2cc3c(s2)S(=O)(=O)N(C)CC3N)ccc2c(=O)c(C(=O)O)cn(C3CC3)c12.Cl (centres unmarked) [Example 109, 7-(4-amino-2-methyl-1,1-dioxido-3,4-dihydro-2H-thieno[3,2-e][1,2]thiazin-6-yl)-1-cyclopropyl-8-methoxy-4-oxo-1,4-dihydro-3-quinolinecarboxylic acid hydrochloride]","Antibacterial Activity (MIC's), E",[1],0.125 µg/mL
same,"Antibacterial Activity (MIC's), F",[2],0.5 µg/mL
same,"Antibacterial Activity (MIC's), B",[3],2 µg/mL
same,"Antibacterial Activity (MIC's), A",[4],0.125 µg/mL
same,"Antibacterial Activity (MIC's), D",Escherichia coli JUHL,8 µg/mL
"COc1c(-c2cc3c(s2)C(N)CCC3(C)C)ccc2c(=O)c(C(=O)O)cn(C3CC3)c12.Cl (centres unmarked) [Example 222, 7-(7-amino-4,4-dimethyl-4,5,6,7-tetrahydro-1-benzothien-2-yl)-1-cyclopropyl-8-methoxy-4-oxo-1,4-dihydro-3-quinolinecarboxylic acid hydrochloride]","Antibacterial Activity (MIC's), E",[1],0.5 µg/mL
same,"Antibacterial Activity (MIC's), F",[2],0.25 µg/mL
same,"Antibacterial Activity (MIC's), B",[3],0.5 µg/mL
same,"Antibacterial Activity (MIC's), A",[4],0.125 µg/mL
same,"Antibacterial Activity (MIC's), D",Escherichia coli JUHL,1 µg/mL
